{"source": "paper PMC8998904", "about": "“Identification and New Indication of Melanin-Concentrating Hormone Receptor 1 (MCHR1) Antagonist Derived from Machine Learning and Transcriptome-Based Drug Repositioning Approaches” (International Journal of Molecular Sciences, 2022)", "key": {"[1]": {"system": "LDLR", "assay": "Western blot assay of LDLR protein expression in HepG2 cells", "type": "cell-based, human", "details": "HepG2 cells, 3, 10 and 30 μM", "method": "To validate that KRX-104130 increased the LDLR gene expression through the DEG analysis, LDLR mRNA expression was investigated in KRX-104130–treated HepG2 cells.\nThe protein expression levels of LDLR in the HepG2 cells were determined by Western blot assay at Cosmo Genetech (Sungsoo, Seoul, Korea). Briefly, cell protein extracts were prepared using radioimmunoprecipitation assay buffer (Thermo Scientific, Pierce, Rockford, IL, USA). Twenty micrograms of protein lysate were separated by electrophoresis on a 10% sodium dodecyl-sulfate (SDS)-polyacrylamide gel electrophoresis (PAGE) gel (Bio-Rad, Hercules, CA, USA) and transferred to a nitrocellulose membrane (Hybond-C Extra; GE Healthcare, Piscataway, NJ, USA). Nonspecific binding was blocked with 5% milk and incubated with 1:1000 primary antibody (LDLR Rabbit-mAb, #ab52818, Abcam) overnight at 4 °C. The secondary antibodies (horseradish peroxidase [HRP]-conjugated mouse anti-rabbit IgG, #SC-2357, Santa Cruz) were diluted 1:3000 in a fresh blocking solution. Protein bands were detected using the SuperSignal West Femto Kit (Thermo Fisher Scientific Inc., Waltham, MA, USA)."}, "[2]": {"system": "methionine-choline-deficient (MCD) diet induced NASH mouse model", "assay": "MCD diet-induced NASH mouse model", "type": "in vivo, C57BL/6 mice", "details": "30 mg/kg once-daily oral, 4 weeks", "method": "In addition, the MCD diet-induced histopathological changes, such as steatosis and fibrosis in liver tissues, were ameliorated by treatment with KRX-104130 (Figure 8D).\nAnimal studies were carried out following the guidelines for animal care approved by the Institutional Animal Care and Use Committee at the Korea Research Institute of Chemical Technology (approval number: 2020-6A-10-01). Nine-week-old male C57BL/6 mice (Orient Bio, Sungnam, Korea) were randomly divided into three groups: a control group that was fed MCS diet, the NASH model group, and the treatment group that was fed an MCD diet with once-daily oral administration of vehicle (0.5% carboxymethyl cellulose) or 30 mg/kg KRX-104130. After 4 weeks of feeding, the mice were fasted overnight, and blood and tissue samples were obtained for biochemical and histological analyses. Liver TG levels and serum concentrations of liver injury markers, including ALT and AST, were determined using a colorimetric kit (MAK266, Sigma-Aldrich, St. Louis, MO, USA) or biochemical analyzer (AU480, Beckman Coulter, Atlanta, GA, USA), respectively, according to the manufacturer’s instructions. The left lobe of the liver was fixed in 10% neutralized buffered formalin and embedded in paraffin. Histological examination was performed using hematoxylin and eosin (H&E) and picrosirius red staining of 5 µm-thick sections."}}}
{"smiles": "COc1nc2cc(F)c(F)cc2nc1NC(=O)NC1CCN(Cc2cc3ccccc3[nH]2)CC1", "note": "[KRX-104130]", "values": [{"measurement": "LDLR protein level", "setting": "[1]", "result": "increased in a concentration-dependent manner"}, {"measurement": "MCD diet-induced histopathological changes (steatosis and fibrosis in liver tissues)", "setting": "[2]; H&E and picrosirius red", "result": "ameliorated"}, {"measurement": "Liver TG levels", "setting": "[2]; mean ± S.E.M.", "result": "29.73 ± 1.54"}, {"measurement": "Serum ALT", "setting": "[2]; mean ± S.E.M.", "result": "163.67 ± 25.85"}, {"measurement": "Serum AST", "setting": "[2]; mean ± S.E.M.", "result": "170.5 ± 27.27"}]}
